Source: patent US11541063B2, “Compositions and products for use in the treatment of bone fractures and defects” (priority 2014, dated 2023)
Where two headings read alike, the source gives them in different places.

System: MC3T3-E1 cells
Conditions: alendronate only (0 nM Stanolone), MC3T3 cells stimulated for 10 days
Experimental: MC3T3-E1 (ECACC, Acc. No. 99072810) were cultured in α-MEM (Invitrogen, Carlsbad, Calif.) supplemented with 100 U/ml penicillin, 100 ug/ml streptomycin (Invitrogen, Carlsbad, Calif.) and 5% fetal bovine serum (Hyclone, GE Healthcare). Cells were grown under standard conditions (37° C., 5% CO2 and 95% humidity). MC3T3-E1 cells were seeded at a density of 26000 cells/cm2 and seeding of the cells was considered as the day 0 timepoint. On day 1 post-plating, the medium of the MC3T3-E1 cells was replaced with osteogenic medium (the above-mentioned media supplemented with 50 μg/ml Ascorbic Acid (Sigma)), 10 nM β-glycerol phosphate (Sigma) and on day 3 post-plating, hormones or vehicle (0.1% ethanol) were added.
Cells were lysed for 10 minutes with lysisbuffer (100 mM Potassium phosphate, 0.2% Triton X-100, pH 7.8 containing protease inhibitor cocktail (Roche)). […] The luminescence (1 second) was measured with a Filtermax F5 (Molecular Devices).
The acidic phosphatase activity of the cells was determined by adding freshly prepared p-NPP buffer (4-nitrophenyl phosphate (Sigma) in 0.1 M NaAc+0.1% Triton X-100, pH5.5) to the cell lysates and incubated for 1.5 hrs at 37° C. and 5% CO2. […] The absorbance was measured at 405 nm with a Filtermax F5 (Molecular Devices). […]

Q: How did the ALP/AP activity (50 μM) turn out when `NCCCC(O)(P(=O)(O)O)P(=O)(O)O` [alendronate] was run?
A: decreases

Q: And the ALP/AP activity (2 and 10 μM)?
A: small increase
